Laboratory results as given in patent US20110152313A1 (MACQUARIE UNIVERSITY, priority 2008, published 2011).

Legend:
Experiment in all cases: kinase binding screen (kinase-tagged T7 phage, qPCR), % Ctrl
CAMK1G = CAMK1G (Homo sapiens, UniProt Q96NX5)
Description: (§1) Percentage kinase inhibition at a set concentration was performed by methods well known in the prior art (Fabian, M. A. et al. Nat. Biotechnol. 2005, 23, 329; Karaman et al. (2008) Nat. Biotechnol. […], 26, 127). Briefly, kinase-tagged T7 phage strains were grown in parallel in 24-well blocks in an E. coli host derived from the BL21 strain. E. coli were grown to log-phase and infected with T7 phage from a frozen stock (multiplicity of infection=0.4) and incubated with shaking at 32° C. until lysis (90-150 minutes). The lysates were centrifuged (6,000×g) and filtered (0.2 μm) to remove cell debris. […] The liganded beads were blocked with excess biotin and washed with blocking buffer (SeaBlock (Pierce); 1% BSA, 0.05% Tween 20, 1 mM DTT) to remove unbound ligand and to reduce non-specific phage binding. […] Test compounds were prepared as 40× stocks in 100% DMSO and directly diluted into the assay. All reactions were performed in polypropylene 384-well plates in a final volume of 0.04 mL. […] The kinase concentration in the eluates was measured by qPCR.

CAMKK1 = CAMKK1 (Homo sapiens, UniProt Q8N5S9)
Description: as §1

CLK4 = CLK4 (Homo sapiens, UniProt Q9HAZ1)
Description: as §1

DYRK1A = DYRK1A (Homo sapiens, UniProt Q13627)
Description: as §1

MAP3K15 = target: T1, MAP3K15 (Homo sapiens, UniProt Q6ZN16)
T1 sequence (Q6ZN16 1-1313): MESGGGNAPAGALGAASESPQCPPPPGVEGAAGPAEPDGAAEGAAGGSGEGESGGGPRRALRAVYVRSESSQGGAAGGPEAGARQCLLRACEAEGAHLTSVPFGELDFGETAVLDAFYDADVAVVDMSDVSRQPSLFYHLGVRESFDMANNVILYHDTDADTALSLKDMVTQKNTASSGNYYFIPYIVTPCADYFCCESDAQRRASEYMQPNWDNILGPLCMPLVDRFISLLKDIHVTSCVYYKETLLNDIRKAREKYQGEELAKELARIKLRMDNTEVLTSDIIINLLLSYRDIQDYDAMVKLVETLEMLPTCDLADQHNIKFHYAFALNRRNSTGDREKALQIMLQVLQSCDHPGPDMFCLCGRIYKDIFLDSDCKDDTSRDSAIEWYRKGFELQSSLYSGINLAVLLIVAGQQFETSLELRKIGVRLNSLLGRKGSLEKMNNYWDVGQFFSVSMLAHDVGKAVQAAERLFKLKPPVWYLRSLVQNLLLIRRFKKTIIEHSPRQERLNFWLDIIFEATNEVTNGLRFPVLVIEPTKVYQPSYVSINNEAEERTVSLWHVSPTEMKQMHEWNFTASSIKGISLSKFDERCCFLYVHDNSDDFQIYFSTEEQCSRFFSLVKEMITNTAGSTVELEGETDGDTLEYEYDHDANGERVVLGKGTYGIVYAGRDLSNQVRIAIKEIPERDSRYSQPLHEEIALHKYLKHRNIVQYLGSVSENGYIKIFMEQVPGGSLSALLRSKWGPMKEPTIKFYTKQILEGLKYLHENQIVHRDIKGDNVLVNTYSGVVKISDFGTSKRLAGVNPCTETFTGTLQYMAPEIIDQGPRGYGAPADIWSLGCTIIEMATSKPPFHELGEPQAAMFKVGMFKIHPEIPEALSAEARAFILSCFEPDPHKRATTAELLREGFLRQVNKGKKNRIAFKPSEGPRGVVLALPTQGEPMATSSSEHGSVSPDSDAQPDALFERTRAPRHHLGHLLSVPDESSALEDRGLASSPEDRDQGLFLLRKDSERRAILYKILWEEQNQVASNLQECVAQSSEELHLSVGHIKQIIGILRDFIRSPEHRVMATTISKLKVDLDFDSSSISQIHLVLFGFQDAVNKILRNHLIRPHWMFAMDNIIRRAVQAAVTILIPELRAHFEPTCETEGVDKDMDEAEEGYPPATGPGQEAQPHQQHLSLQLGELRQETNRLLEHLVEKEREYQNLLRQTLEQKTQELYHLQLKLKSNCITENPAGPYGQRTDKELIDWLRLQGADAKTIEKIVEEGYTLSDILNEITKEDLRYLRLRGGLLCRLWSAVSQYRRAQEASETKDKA
Description: as §1

MAP3K2 = target: T2, MAP3K2 (Homo sapiens, UniProt Q9Y2U5)
T2 sequence (Q9Y2U5 1-619): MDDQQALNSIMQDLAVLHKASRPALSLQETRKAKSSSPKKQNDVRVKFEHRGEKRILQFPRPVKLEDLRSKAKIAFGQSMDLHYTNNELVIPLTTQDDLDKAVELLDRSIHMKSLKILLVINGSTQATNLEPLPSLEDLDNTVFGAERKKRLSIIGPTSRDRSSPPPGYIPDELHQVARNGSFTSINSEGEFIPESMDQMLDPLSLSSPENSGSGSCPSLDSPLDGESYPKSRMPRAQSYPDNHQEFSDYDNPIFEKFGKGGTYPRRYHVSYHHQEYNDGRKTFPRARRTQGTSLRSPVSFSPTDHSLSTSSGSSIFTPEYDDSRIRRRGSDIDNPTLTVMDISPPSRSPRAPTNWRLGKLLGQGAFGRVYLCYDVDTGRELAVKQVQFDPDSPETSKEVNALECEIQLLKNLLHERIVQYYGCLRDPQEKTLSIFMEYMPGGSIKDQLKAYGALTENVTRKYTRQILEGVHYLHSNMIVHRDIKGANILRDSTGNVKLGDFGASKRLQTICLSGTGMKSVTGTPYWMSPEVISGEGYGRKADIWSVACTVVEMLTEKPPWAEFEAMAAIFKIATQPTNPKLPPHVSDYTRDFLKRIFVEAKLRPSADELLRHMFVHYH
Description: as §1

SBK1 = SBK1 (Homo sapiens, UniProt Q52WX2)
Description: as §1

[1] = target: TYK2(JH2domain-pseudokinase) (Homo sapiens, UniProt P29597)
Description: as §1

YANK2 = YANK2 (Homo sapiens, UniProt Q9NY57)
Description: as §1

CAMKK1, sequence (Q8N5S9 whole entry): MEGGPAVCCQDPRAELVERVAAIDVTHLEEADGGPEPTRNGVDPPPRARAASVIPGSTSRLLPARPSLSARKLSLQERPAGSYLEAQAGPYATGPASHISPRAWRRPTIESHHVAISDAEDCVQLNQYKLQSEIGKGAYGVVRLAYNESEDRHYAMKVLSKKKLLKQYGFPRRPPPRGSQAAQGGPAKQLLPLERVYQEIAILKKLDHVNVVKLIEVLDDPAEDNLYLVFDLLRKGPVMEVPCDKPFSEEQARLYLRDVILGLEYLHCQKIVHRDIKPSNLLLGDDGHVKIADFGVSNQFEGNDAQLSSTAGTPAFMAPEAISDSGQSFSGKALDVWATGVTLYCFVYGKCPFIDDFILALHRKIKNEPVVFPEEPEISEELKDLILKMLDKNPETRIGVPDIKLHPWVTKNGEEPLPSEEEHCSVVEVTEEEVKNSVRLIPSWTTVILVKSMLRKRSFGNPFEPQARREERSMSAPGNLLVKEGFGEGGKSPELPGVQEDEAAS
CAMK1G, sequence (Q96NX5 whole entry): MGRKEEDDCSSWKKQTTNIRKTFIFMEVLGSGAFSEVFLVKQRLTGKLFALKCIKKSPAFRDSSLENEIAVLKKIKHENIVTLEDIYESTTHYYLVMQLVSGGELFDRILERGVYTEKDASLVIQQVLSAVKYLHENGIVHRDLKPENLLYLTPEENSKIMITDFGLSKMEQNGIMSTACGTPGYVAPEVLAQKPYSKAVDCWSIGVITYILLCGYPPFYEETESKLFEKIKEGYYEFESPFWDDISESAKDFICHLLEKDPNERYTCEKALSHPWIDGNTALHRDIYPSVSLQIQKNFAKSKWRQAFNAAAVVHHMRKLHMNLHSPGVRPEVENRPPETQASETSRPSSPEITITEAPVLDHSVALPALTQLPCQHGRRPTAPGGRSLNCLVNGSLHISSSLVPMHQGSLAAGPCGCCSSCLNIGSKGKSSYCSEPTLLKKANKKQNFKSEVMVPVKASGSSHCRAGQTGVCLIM
CLK4, sequence (Q9HAZ1 whole entry, species assumed): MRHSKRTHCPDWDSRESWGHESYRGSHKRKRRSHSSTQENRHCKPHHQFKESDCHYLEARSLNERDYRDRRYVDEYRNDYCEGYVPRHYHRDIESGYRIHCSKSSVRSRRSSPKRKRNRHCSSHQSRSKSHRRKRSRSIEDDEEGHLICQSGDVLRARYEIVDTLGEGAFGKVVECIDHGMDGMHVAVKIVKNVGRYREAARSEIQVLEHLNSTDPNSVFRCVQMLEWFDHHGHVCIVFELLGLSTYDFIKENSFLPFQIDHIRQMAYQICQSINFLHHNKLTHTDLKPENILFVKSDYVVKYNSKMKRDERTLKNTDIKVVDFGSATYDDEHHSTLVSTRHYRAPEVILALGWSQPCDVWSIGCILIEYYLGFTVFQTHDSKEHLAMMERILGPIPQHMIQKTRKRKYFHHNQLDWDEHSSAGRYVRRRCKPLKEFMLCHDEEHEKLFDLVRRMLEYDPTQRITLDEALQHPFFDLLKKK
TYK2(JH2domain-pseudokinase), sequence (P29597 589-875 limits assumed, species assumed): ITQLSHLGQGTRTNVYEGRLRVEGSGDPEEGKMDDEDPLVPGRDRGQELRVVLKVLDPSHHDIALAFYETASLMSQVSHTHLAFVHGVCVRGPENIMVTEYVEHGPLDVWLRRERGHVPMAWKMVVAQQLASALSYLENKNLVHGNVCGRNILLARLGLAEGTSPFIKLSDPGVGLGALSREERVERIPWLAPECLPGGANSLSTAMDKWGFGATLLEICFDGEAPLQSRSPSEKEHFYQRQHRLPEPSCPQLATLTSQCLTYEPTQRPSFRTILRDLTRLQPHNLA
SBK1, sequence (Q52WX2 whole entry): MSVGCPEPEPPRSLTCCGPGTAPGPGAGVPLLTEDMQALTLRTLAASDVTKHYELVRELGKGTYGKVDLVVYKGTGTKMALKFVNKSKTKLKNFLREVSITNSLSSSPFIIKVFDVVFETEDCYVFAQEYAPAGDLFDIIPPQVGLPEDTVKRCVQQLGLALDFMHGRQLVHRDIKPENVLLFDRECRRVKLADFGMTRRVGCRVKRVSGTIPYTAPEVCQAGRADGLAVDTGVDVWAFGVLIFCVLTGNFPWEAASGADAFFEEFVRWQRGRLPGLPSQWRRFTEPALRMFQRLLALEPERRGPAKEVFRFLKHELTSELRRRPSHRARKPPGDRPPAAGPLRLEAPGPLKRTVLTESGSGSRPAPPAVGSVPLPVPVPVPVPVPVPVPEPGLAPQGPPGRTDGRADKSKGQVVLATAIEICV
YANK2, sequence (Q9NY57 whole entry): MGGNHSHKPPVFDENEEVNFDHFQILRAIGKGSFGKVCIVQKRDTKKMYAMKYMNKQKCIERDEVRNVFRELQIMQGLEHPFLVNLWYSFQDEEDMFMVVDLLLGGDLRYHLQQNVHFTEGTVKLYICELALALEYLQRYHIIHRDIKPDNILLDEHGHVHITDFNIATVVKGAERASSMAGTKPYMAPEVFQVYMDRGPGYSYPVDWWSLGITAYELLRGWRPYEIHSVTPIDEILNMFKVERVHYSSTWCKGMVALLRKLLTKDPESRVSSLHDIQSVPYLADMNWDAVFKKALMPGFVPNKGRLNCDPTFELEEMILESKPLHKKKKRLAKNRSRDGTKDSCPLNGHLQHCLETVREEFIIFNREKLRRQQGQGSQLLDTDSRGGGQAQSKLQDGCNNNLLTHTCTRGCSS

remaining activity at 10 µM (CAMK1G; 10 μM) [%] | remaining activity at 10 µM (CAMKK1; 10 μM) [%] | remaining activity at 10 µM (CLK4; 10 μM) [%] | remaining activity at 10 µM (DYRK1A; 10 μM) [%] | remaining activity at 10 µM (MAP3K15; 10 μM) [%] | remaining activity at 10 µM (MAP3K2; 10 μM) [%] | remaining activity at 10 µM (SBK1; 10 μM) [%] | remaining activity at 10 µM ([1]; 10 μM) [%] | remaining activity at 10 µM (YANK2; 10 μM) [%] | Compound | remaining activity at 1 µM (CAMK1G) [%] | remaining activity at 1 µM (CAMKK1) [%] | remaining activity at 1 µM (CLK4) [%] | remaining activity at 1 µM (DYRK1A) [%] | remaining activity at 1 µM (MAP3K15) [%] | remaining activity at 1 µM (MAP3K2) [%] | remaining activity at 1 µM (SBK1) [%] | remaining activity at 1 µM [1] [%] | remaining activity at 1 µM (YANK2) [%]
 |  |  |  |  |  |  |  |  | Nc1nc2c(-c3cnc4ccccc4c3)nccc2[nH]1 [drawing 36, 4-(quinolin-3-yl)-1H-imidazo[4,5-c]pyridin-2-amine] | 100 | 100 | 65 | 51 | 94 | 81 | 100 | 25 | 50
96 | 100 | 11 | 4.7 | 78 | 70 | 77 | 2 | 87 | Nc1nc2c(-c3cc(Br)c(Br)[nH]3)nccc2[nH]1 [Ageladine A, ageladine A, reference compound] | 100 | 92 | 51 | 38 | 100 | 73 | 87 | 23 | 93
 |  |  |  |  |  |  |  |  | Nc1nc2c(-c3ccccn3)nccc2[nH]1 [drawing 35, 4-(pyrid-2-yl)-1H-imidazo[4,5-c]pyridin-2-amine] | 43 | 19 | 60 | 36 | 40 | 54 | 53 | 41 | 89
